{"source": "patent US20010051164A1", "about": "“1-0 ALKYLGLYCEROLS FOR PHARMACEUTICAL OR VETERINARY USE FOR PRESERVING AND/OR IMPROVING SPERM” (priority 1996, published 2001)", "origin": "cited, not measured here", "tested_on": "spermatozoons of various animal species and of man"}
{"substance": "1-O-alkyl-2-acetyl-sn-glycero-3-phosphocholine [PAF]", "values": [{"measurement": "power of fertilisation of ovocytes by treated spermatozoons", "setting": "ovocytes of the rabbit and of the mouse", "value": "increases their power of fertilisation"}, {"measurement": "motor function of the spermatozoons", "setting": "various animal species and man", "value": "increases the motor function"}]}
